The text below walks through data of ChEMBL document CHEMBL1201862, “PubChem BioAssay data set” (2004).

SMILES strings stand for the structures.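 Growth conditions: 96-well plates. Treatment: test compound, 48 hours, 5 concentrations. Analysis: linear interpolation between bracketing concentrations; unreached endpoints set to highest concentration. GI50 marks 50% less growth.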 The source made the active and inactive calls. Cut-off read from the data, not from the text of the source: active = GI50 up to about 1.1 µM and inactive = higher.

Test systems include NCI-H226; SK-MEL-28; A498; UO-31; SR; SK-OV-3; SK-MEL-5; RXF 393; CCRF-CEM; HL-60; HCC 2998; SNB-19; SN12C; UACC-257; NCI-H522; SW-620; CAKI-1; OVCAR-3.
What all share (experiment): growth of human tumour cells (NCI), 48 h

`Cc1cccc(C(C)(C)C)c1NC(=O)C(=O)C(c1cnc2ccccc2n1)[N+](=O)[O-]` (centres undefined): the GI50 with NCI-H226, with SK-MEL-28, in the assay on A498, in the assay on UO-31, with SR and with SK-OV-3 was > 100 µM (inactive) each time. In addition, the GI50 in the assay with SK-MEL-5 was > 100 µM (inactive); in the assay with RXF 393, > 100 µM (inactive); in the assay on CCRF-CEM, 32.1 µM (inactive); with HL-60, 65.3 µM (inactive); in the assay with HCC 2998, > 100 µM (inactive); in the assay with SNB-19, > 100 µM (inactive). Also, the GI50 in the assay with SN12C is > 100 µM (inactive); in the assay on UACC-257 it was > 100 µM (inactive); in the assay on NCI-H522, 38.5 µM (inactive); with SW-620, > 100 µM (inactive); with CAKI-1 it was > 100 µM (inactive).
Take `CC1=N/C(=C\c2ccc(N)cc2)C(=O)N1Nc1nnc(NN2C(=O)/C(=C/c3ccc(N)cc3)N=C2C)c2ccccc12`: the GI50 in the assay on NCI-H226 was 14.3 µM (inactive); in the assay with SK-MEL-28, > 100 µM (inactive); with A498, > 100 µM (inactive); with SR it was 30.1 µM (inactive); in the assay with SK-MEL-5, 45.2 µM (inactive); in the assay on RXF 393, 22.5 µM (inactive). Besides, the GI50 in the assay with CCRF-CEM is 18.6 µM (inactive); with HL-60 it was 22.1 µM (inactive); with SNB-19, 33 µM (inactive); in the assay on SN12C it was 96.2 µM (inactive); with UACC-257 it was > 100 µM (inactive); in the assay on NCI-H522, 21.3 µM (inactive). In addition, the GI50 with SW-620 is 83.9 µM (inactive).
`O=C1OC2(c3ccccc3Oc3ccccc32)c2ccccc21`: the GI50 with NCI-H226, in the assay on SK-MEL-28, with A498, in the assay on UO-31, with OVCAR-3 and in the assay with SR was > 100 µM (inactive) throughout. The GI50 in the assay with SK-OV-3 was > 100 µM (inactive); in the assay on SK-MEL-5, > 100 µM (inactive); in the assay with CCRF-CEM, > 100 µM (inactive); in the assay with HL-60 it was 99.8 µM (inactive); in the assay with HCC 2998, > 100 µM (inactive); in the assay on SNB-19, > 100 µM (inactive). Also, the GI50 was > 100 µM (inactive) in the assay on SN12C; 99.5 µM (inactive) with UACC-257; 69.8 µM (inactive) in the assay on NCI-H522; > 100 µM (inactive) with SW-620; > 100 µM (inactive) in the assay with CAKI-1.
For `CCOC(=O)C(=O)Nc1ccc(C)c(C)c1`, the GI50 is > 100 µM (inactive) with NCI-H226; > 100 µM (inactive) in the assay with SK-MEL-28; > 100 µM (inactive) in the assay with A498; > 100 µM (inactive) in the assay on UO-31; < 0.01 µM (active) in the assay with SR; > 100 µM (inactive) with SK-OV-3. In addition, the GI50 is > 100 µM (inactive) in the assay on SK-MEL-5; > 100 µM (inactive) in the assay on RXF 393; > 100 µM (inactive) in the assay with CCRF-CEM; > 54.8 µM (inactive) with HL-60; > 100 µM (inactive) in the assay with HCC 2998; > 100 µM (inactive) in the assay with SNB-19. Besides, the GI50 in the assay with SN12C was > 100 µM (inactive); in the assay on UACC-257, > 100 µM (inactive); with NCI-H522 it was > 100 µM (inactive); with SW-620 it was 5.81 µM (inactive); in the assay on CAKI-1 it was > 100 µM (inactive).
In the case of `CN(C)c1n/c(=N/c2ncn[nH]2)ss1`, the GI50 with NCI-H226, with SK-MEL-28, in the assay with A498, with UO-31, in the assay with SR and with SK-OV-3 was > 100 µM (inactive) in each case. The GI50 in the assay with SK-MEL-5, in the assay with RXF 393, in the assay on CCRF-CEM, with HL-60, in the assay on HCC 2998 and in the assay on SNB-19 was > 100 µM (inactive) throughout. Also, the GI50 in the assay on SN12C, with UACC-257, in the assay with NCI-H522, in the assay with SW-620 and in the assay with CAKI-1 was > 100 µM (inactive) in each case.
On to `CN1CCC(=O)/C(=C/c2ccccc2)C1`, for which the GI50 with NCI-H226 was 16.8 µM (inactive); with SK-MEL-28, 18.2 µM (inactive); in the assay with A498, 18.5 µM (inactive); with UO-31, 17.9 µM (inactive); with OVCAR-3, 11.6 µM (inactive); in the assay on SR, 2.91 µM (inactive). Also, the GI50 with SK-OV-3 is 20.2 µM (inactive); with SK-MEL-5 it was 17.9 µM (inactive); in the assay with RXF 393 it was 13.7 µM (inactive); with CCRF-CEM it was 8.93 µM (inactive); in the assay on HL-60 it was 9.35 µM (inactive); with HCC 2998, 10.9 µM (inactive). The GI50 is 17.1 µM (inactive) in the assay with SNB-19; 14.7 µM (inactive) in the assay with SN12C; 14.7 µM (inactive) in the assay on UACC-257; 8.95 µM (inactive) in the assay with NCI-H522; 4.99 µM (inactive) with SW-620; 17.9 µM (inactive) in the assay with CAKI-1.
As to `O=C(CCn1[nH]c(=O)c(Cl)c(Cl)c1=O)NOCCCc1ccccc1`, the GI50 in the assay with NCI-H226, in the assay with SK-MEL-28, in the assay with A498, in the assay on UO-31, in the assay with OVCAR-3 and in the assay on SR was > 100 µM (inactive) throughout. Further, the GI50 with SK-MEL-5, with CCRF-CEM, in the assay with HL-60, in the assay on HCC 2998, with SNB-19 and in the assay on SN12C was > 100 µM (inactive) each time. The GI50 with UACC-257, with SW-620 and with CAKI-1 was > 100 µM (inactive) throughout.
As for `C/C(CCn1[nH]c(=O)ccc1=O)=N\Nc1ccc([N+](=O)[O-])cc1[N+](=O)[O-]`, the GI50 is > 100 µM (inactive) in the assay with NCI-H226; > 100 µM (inactive) in the assay on SK-MEL-28; > 100 µM (inactive) with A498; 12.7 µM (inactive) in the assay on UO-31; > 100 µM (inactive) in the assay with OVCAR-3; > 100 µM (inactive) with SR. Besides, the GI50 in the assay on SK-MEL-5 was 41.8 µM (inactive); with RXF 393, > 100 µM (inactive); with CCRF-CEM, > 100 µM (inactive); in the assay on HL-60, > 100 µM (inactive); in the assay on HCC 2998, > 100 µM (inactive); in the assay with SNB-19, > 100 µM (inactive). For the same compound, the GI50 with SN12C, in the assay with UACC-257, in the assay on SW-620 and in the assay with CAKI-1 was > 100 µM (inactive) throughout.
For `CCC(=O)N1C(=S)SC[C@H]1C(=O)OC`, the GI50 with NCI-H226, in the assay on SK-MEL-28, with A498, with UO-31, with OVCAR-3 and in the assay with SR was > 100 µM (inactive) throughout. Further, the GI50 in the assay on SK-OV-3 was > 100 µM (inactive); in the assay with SK-MEL-5 it was > 100 µM (inactive); with RXF 393, > 100 µM (inactive); in the assay with CCRF-CEM, 69.2 µM (inactive); with HL-60, > 100 µM (inactive); in the assay with HCC 2998, > 100 µM (inactive). The GI50 in the assay with SNB-19, with SN12C, in the assay with UACC-257, in the assay on NCI-H522, in the assay on SW-620 and in the assay with CAKI-1 was > 100 µM (inactive) throughout.
On to `O=C(O)c1ccc(C2COc3ccc(Cl)cc3C2)cc1` (centres undefined), for which the GI50 in the assay on NCI-H226, with SK-MEL-28, in the assay on A498, in the assay with UO-31, in the assay with OVCAR-3 and in the assay with SR was > 100 µM (inactive) in each case. The GI50 in the assay on SK-OV-3, with SK-MEL-5, with RXF 393, in the assay on CCRF-CEM, with HL-60 and in the assay on HCC 2998 was > 100 µM (inactive) throughout. The GI50 with SNB-19, in the assay on SN12C, in the assay on UACC-257, in the assay on NCI-H522, with SW-620 and in the assay with CAKI-1 was > 100 µM (inactive) throughout.
As to `CCC1(c2ccncc2)CCC(=O)NC1=O` (centres undefined) [ROGLETIMIDE], the GI50 in the assay with NCI-H226, in the assay on SK-MEL-28, in the assay with A498, in the assay on UO-31, in the assay on OVCAR-3 and with SR was > 100 µM (inactive) throughout. The GI50 in the assay on SK-OV-3, in the assay on SK-MEL-5, in the assay on RXF 393, in the assay on CCRF-CEM, in the assay on HL-60 and in the assay on HCC 2998 was > 100 µM (inactive) in each case. Also, the GI50 with SNB-19, in the assay with SN12C, in the assay with UACC-257, with SW-620 and with CAKI-1 was > 100 µM (inactive) throughout.
In the case of `O=C1C=CC(CC(=O)c2ccc3ccccc3c2)O1` (centres undefined), the GI50 in the assay with SK-MEL-28 was 55.8 µM (inactive); in the assay on A498 it was 20 µM (inactive); with UO-31, 24.3 µM (inactive); in the assay on OVCAR-3, 25.2 µM (inactive); in the assay on SR, 30.3 µM (inactive); in the assay on SK-OV-3, 68.1 µM (inactive). In addition, the GI50 was 59.3 µM (inactive) with SK-MEL-5; 20.5 µM (inactive) in the assay on RXF 393; 23.2 µM (inactive) in the assay on CCRF-CEM; 17.1 µM (inactive) with HL-60; 17.2 µM (inactive) with HCC 2998; 32.7 µM (inactive) in the assay on SNB-19. Also, the GI50 in the assay with SN12C was 18.8 µM (inactive); with UACC-257, 47.6 µM (inactive); in the assay on SW-620, 26.5 µM (inactive); in the assay with CAKI-1, 62.1 µM (inactive).
